# From US20260008818A1, “CYCLIC PEPTIDE OR SALT THEREOF, AND USES THEREOF” (FUJIFILM Corporation, priority 2023, published 2026)
# Bridge positions count the residues as written; N and C are the ends. Ends that are not written are not given here. COCH2 = acetyl group that carries the bridge
# Tested on: Recombinant Human FGFR1 alpha (IIIc) Fc Chimera Protein
# Assay: Binding affinity of enzymatically synthesized cyclic peptide to FGFR by ELISA
# Conditions: luminescence signal at reaction concentration 10 nmol/L, SEQ ID NO: 39 standardized to 1, enzyme synthesis product
# Experimental: The binding affinity of the cyclic peptide to FGFR was evaluated using an ELISA method.
# The binding affinity of the enzymatically synthesized cyclic peptide to FGFR was measured by evaluating the amount of the cyclic peptide bound to FGFR by ELISA.
# First, 5 ng of Recombinant Human FGFR1 alpha (IIIc) Fc Chimera Protein CF (R&D systems, 658-FR-050) was immobilized in each well of a 96-well plate, and blocked with Pierce Protein-Free (PBS) Blocking Buffer (Thermo, 37572), and a cyclic peptide diluted with Can Get Signal Immunoreaction Enhancer Solution I (TOYOBO, NKB-101) was then added and reacted at room temperature for 3 hours. After washing with 0.05% Tween 20-containing phosphate buffered saline (PBS), an anti-Myc antibody (Cell Signaling, 14038S) diluted with Can Get Signal Immunoreaction Enhancer Solution II (TOYOBO, NKB-101) was added and reacted at room temperature for 2 hours. After washing with 0.05% Tween 20-containing PBS, SuperSignal ELISA Femto Substrate (Thermo, 37075) was added, and the luminescence amount was measured. The dose-response relationship was calculated from using the difference between the luminescence amount in the well in which FGFR was immobilized and the luminescence amount in the well in which FGFR was not immobilized, and the concentration of the cyclic peptide at the time of reaction, and the binding affinity to FGFR was evaluated according to the following evaluation criteria. The evaluation result preferably satisfies the evaluation criteria A, B, or C.
# In a case where a value of a luminescence signal emitted by the cyclic peptide set forth in SEQ ID NO: 39 at a reaction concentration of 10 nmol/L is standardized to 1, evaluation criteria of the luminescence signal value emitted by the cyclic peptide at a reaction concentration of 10 nmol/L is as follows. • A: 0.7 or more • B: 0.5 or more and less than 0.7 • C: 0.1 or more and less than 0.5 • D: less than 0.1.
row,Substance,Evaluation result of binding affinity to FGFR
1,301 (HCSYERLMFHGHEAPFRVK(COCH2)V; thioether 2-19 (inferred)) [compound 301],A (0.7 or more)
2,302 (HCSYERLQMHGHEAPFRVK(COCH2)V; thioether 2-19 (inferred)) [compound 302],B (0.5 or more and less than 0.7)
3,219 (HCSYERLQFHGHEAPFRVK(COCH2)T; thioether 2-19 via Ac; not fully specified) [compound 219],A (0.7 or more)
4,202 (HCSYERLQFHGHEAPFRLK(COCH2)V; thioether 2-19 via Ac; not fully specified) [compound 202],C (0.1 or more and less than 0.5)
5,53 (SCWYQPEWLGHHLPYLVK(COCH2)W; thioether 2-18 (inferred)) [compound 53],C (0.1 or more and less than 0.5)
6,211 (HCSYERLQFHGHEAPFRVK(COCH2)L; thioether 2-19 via Ac; not fully specified) [compound 211],A (0.7 or more)
7,236 (HK(COCH2)TWERLIFQGHIAPFWVCR; thioether 2-19 (inferred)) [compound 236],A (0.7 or more)
8,104 (HCSHERLQFHGHEAPFRVK(COCH2)V; thioether 2-19 (inferred)) [compound 104],C (0.1 or more and less than 0.5)
9,66 (HCSYERLQFHGHEAPFRVK(COCH2)A; thioether 2-19 (inferred)) [compound 66],A (0.7 or more)
10,332 (HCTYERLIFHGHIAPFWVK(COCH2)V; thioether 2-19 (inferred)) [compound 332],A (0.7 or more)
11,346 (ACWLRHIYQGHQAPFLIWSTK(COCH2)S; thioether 2-21) [compound 346],C (0.1 or more and less than 0.5)
12,134 (HCSYHRLQFHGHEAPFRVK(COCH2)V; thioether 2-19 (inferred)) [compound 134],A (0.7 or more)
13,171 (HCSYERLQFQGHEAPFRVK(COCH2)V; thioether 2-19 (inferred)) [compound 171],A (0.7 or more)
14,363 (TCSILKHPWGAPFLVK(COCH2)T; thioether 2-16) [compound 363],C (0.1 or more and less than 0.5)
15,118 (HCSYERLQFHGHEAHFRVK(COCH2)V; thioether 2-19 (inferred)) [compound 118],C (0.1 or more and less than 0.5)
16,176 (HCSYERLQFHGHGAPFRVK(COCH2)V; thioether 2-19 (inferred)) [compound 176],C (0.1 or more and less than 0.5)
17,370 (CYERLIFHGHEAPFWVK(COCH2)V; thioether 1-17) [compound 370],A (0.7 or more)
18,127 (HCSYWRLQFHGHEAPFRVK(COCH2)V; thioether 2-19 (inferred)) [compound 127],A (0.7 or more)
19,344 (RCQPFVQLVFRSLLAPFLVK(COCH2)H; thioether 2-20) [compound 344],C (0.1 or more and less than 0.5)
20,155 (HCSYERLEFHGHEAPFRVK(COCH2)V; thioether 2-19 (inferred)) [compound 155],A (0.7 or more)
21,36 (CRALLRGAPFHLAEK(COCH2); thioether 1-15; not fully specified; printed as (C)-RALLRGAPFHLAE-(K(acetyl))) [compound 36],D (less than 0.1)
22,241 (HK(COCH2)TWERLIFLGHIAPFWVCV; thioether 2-19 (inferred)) [compound 241],B (0.5 or more and less than 0.7)
23,130 (HCSYSRLQFHGHEAPFRVK(COCH2)V; thioether 2-19 (inferred)) [compound 130],B (0.5 or more and less than 0.7)

row,Substance,Evaluation result of binding affinity to FGFR
1,122 (HCSYLRLQFHGHEAPFRVK(COCH2)V; thioether 2-19 (inferred)) [compound 122],C (0.1 or more and less than 0.5)
2,64 (HCSYERLQFHGHEAPFAVK(COCH2)V; thioether 2-19 (inferred)) [compound 64],B (0.5 or more and less than 0.7)
3,37 (CDRTLLYYRLSK(COCH2); thioether 1-12; not fully specified; printed as (C)-DRTLLYYRLS-(K(acetyl))) [compound 37],D (less than 0.1)
4,341 (ACLPFLRIIIAGHWAPFLAK(COCH2)H; thioether 2-20) [compound 341],C (0.1 or more and less than 0.5)
5,228 (RK(COCH2)TWERLIFLGHIAPFWVCR; thioether 2-19 (inferred)) [compound 228],C (0.1 or more and less than 0.5)
6,347 (PCVQQISPHPWGAPFWVVTSK(COCH2)F; thioether 2-21) [compound 347],B (0.5 or more and less than 0.7)
7,246 (PCTYRQVVVHGWYAPFISK(COCH2)V; thioether 2-19 (inferred)) [compound 246],C (0.1 or more and less than 0.5)
8,337 (ACLPFLRIIIAGHWAPFLAK(COCH2)Q; thioether 2-20 (inferred)) [compound 337],C (0.1 or more and less than 0.5)
9,78 (TCSYERLQFHGHEAPFRVKV; not fully specified; Description of Artificial Sequence: Cyclic peptide) [compound 78],A (0.7 or more)
10,237 (HK(COCH2)TWERLIFLGHLAPFWVCR; thioether 2-19 (inferred)) [compound 237],B (0.5 or more and less than 0.7)
11,150 (HCSYERLYFHGHEAPFRVK(COCH2)V; thioether 2-19 (inferred)) [compound 150],A (0.7 or more)
12,182 (HCSYERLQFHGHYAPFRVK(COCH2)V; thioether 2-19 via Ac) [compound 182],A (0.7 or more)
13,76 (QCSYERLQFHGHEAPFRVK(COCH2)V; thioether 2-19 (inferred)) [compound 76],A (0.7 or more)
14,137 (HCSYEILQFHGHEAPFRVK(COCH2)V; thioether 2-19 (inferred)) [compound 137],A (0.7 or more)
15,192 (HCSYERLQFHGHEAPFIVK(COCH2)V; thioether 2-19 via Ac) [compound 192],A (0.7 or more)
16,50 (WCRLKLLGHDAPFIK(COCH2)W; thioether 2-15 (inferred)) [compound 50],B (0.5 or more and less than 0.7)
17,156 (HCSYERLRFHGHEAPFRVK(COCH2)V; thioether 2-19 (inferred)) [compound 156],A (0.7 or more)
18,133 (HCSYRRLQFHGHEAPFRVK(COCH2)V; thioether 2-19 (inferred)) [compound 133],B (0.5 or more and less than 0.7)
19,286 (HCSYEKLQFHGHEAPFRVK(COCH2)V; thioether 2-19 (inferred)) [compound 286],A (0.7 or more)
20,260 (ECVLQRLFFEGHLAPFILK(COCH2)I; thioether 2-19 (inferred)) [compound 260],B (0.5 or more and less than 0.7)
21,240 (HK(COCH2)TWERLIFLGHIAPFHVCR; thioether 2-19 (inferred)) [compound 240],A (0.7 or more)
22,305 (HCSYERLQFHGHMAPFRVK(COCH2)V; thioether 2-19 (inferred)) [compound 305],A (0.7 or more)
23,338 (PCLAPYGWVILDWGLVSNWK(COCH2)Y; thioether 2-20 (inferred)) [compound 338],C (0.1 or more and less than 0.5)
